According to US9810687B2, “Nanocomposites and methods of making same” (BOARD OF TRUSTEES OF THE UNIVERSITY OF ARKANSAS, priority 2013, dated 2017):

Experiments:
[1] = test system: human pancreatic cancer cell line Panc-1; experiment: Anticancer/apoptotic effects of PTL, DMAPT and their fGn complexes; conditions: drug alone or as mixture with fGn
Protocol: A water-soluble PTL analog, dimethylaminoparthenolide (DMAPT), was also examined for comparison with the anticancer efficacy of our PTL-fGn complex.
PTL was obtained from Sigma-Aldrich (USA). […] PTL and DMAPT were dissolved in DMSO to create 10 mM stock solutions. To create the PTL-fGn and DMAPT-fGn complexes, the drug was added to fGn solution in media (final drug-fGn complex concentrations were 1, 10, 20, 30, 50, and 100 mM drug and 10 mg/ml fGn), sonicated for 1 h, and then stored at 4° C. before being incubated with cancer cell, such as, Panc-1 cells, or being delivered to a patient.

Panc-1 = experiment: Cytotoxicity of GA delivered by Gn and SWCNT, pancreatic cancer cells; type: cell-based, human; conditions: pancreatic cancer cells in vitro
Protocol: (§1) In this example, Gn and SWCNT were used to deliver the natural low-toxicity drug GA to breast and pancreatic cancer cells in vitro, and the effectiveness of this complex in suppressing cellular integrity was assessed. Cytotoxicity was assessed by measuring lactate dehydrogenase release, mitochondria dehydrogenase activity, mitochondrial membrane depolarization, DNA fragmentation, intracellular lipid content, and membrane permeability/caspase activity. […] This analysis represents a first step toward assessing their effectiveness in more complex, targeted, nanodelivery systems.
(§2) Gn and SWCNT (10 μg/ml) were mixed with GA (0.5, 0.75 and 1 μg/ml) to be described as GA+Gn and GA+SWCNT. First, the samples were vortexed at a high speed for at least 4 h to allow the drug to bind to the nanomaterials via π-π stacking. […] The loading concentrations of the GA on Gn and SWCNT were determined by UV-Vis absorbance at 360 nm measured using a Shimadzu UV-3600 spectrophotometer (Shimadzu Scientific Instruments, Colombia, Me., USA).
(§3) The amount of drug loaded was calculated by peak absorbance at 360 nm after subtracting the background of absorbance from Gn and SWCNT. It is determined that, after vortexing, 98% of the free GA was bound to the Gn (GA−Gn=0.98: 10 μg/ml) and that 88% was bound to the SWCNT (GA−SWCNT=0.88: 10 μg/ml).

MCF-7 = experiment: Cytotoxicity of GA delivered by Gn and SWCNT, breast cancer cells; type: cell-based, human; conditions: breast cancer cells in vitro
Protocol: as §1, §2, §3

| SMILES | IC50 [1] | antiproliferative effects upon nanodelivery (Panc-1) | antiproliferative effects upon nanodelivery (MCF-7) |
| --- | --- | --- | --- |
| C/C1=C\CC[C@@]2(C)O[C@@H]2[C@H]2OC(=O)[C@H](CN(C)C)[C@@H]2CC1 [DMAPT, dimethylaminoparthenolide] | significantly higher than that for PTL-fGn |  |  |
| CC(C)=CCC[C@]1(C)C=Cc2c(O)c3c(c(CC=C(C)C)c2O1)O[C@]12C(=C[C@@H]4C[C@H]1C(C)(C)O[C@@]2(C/C=C(/C)C(=O)O)C4=O)C3=O [GA, Gambogic Acid] |  | significantly enhanced | significantly enhanced |
